Source: patent US12391647B2, “Benzamide compound and preparation method, use, and pharmaceutical composition thereof” (INSTITUTE OF MATERIA MEDICA, CHINESE ACADEMY OF MEDICAL …, priority 2018, dated 2025)
Marks after values point to notes of the source that are not given here.

What was measured:
[1] = tested on: human prostate cancer cell DU145; test: MTT assay, survival rate of tumor cells (antiproliferative activity); assay type: cell-based; settings: DU-145, 72 h, read-out: Antiproliferative activity against human prostate cancer cell DU145, IC50
Description: DU145 cells (human prostate cancer cells) in logarithmic growth phase were digested with 0.25% trypsin-EDTA to prepare single cell suspension, which was inoculated into 96-well plate overnight according to 1500 cells/well/100 μL, and fresh medium containing different concentrations of compounds to be tested and corresponding solvent control was added, and 100 μL (DMSO final concentration <0.1%) was added to each well, and the 96-well plate was further cultured at 37° C. for 72 h. 20 μL of freshly prepared PBS solution containing 5 mg/mL MTT was added to each well, and the 96-well plate was further cultured for 4 h. After the supernatant was discarded, 180 μL of DMSO was added to each well to dissolve the MTT formazan precipitate. After the 96-well plate was shaked and mixed by a micro oscillator, the optical density (OD) at the detection wavelength of 570 nm was measured. With DMSO-treated tumor cells as the control group, the inhibition rate on the growth of tumor cells of the compound to be tested was calculated from the following formula, and the IC50 was calculated according to the median-effect equation. Inhibition rate (%)=(average OD value of control group-average OD value of dosing group)/average OD value of control group×100%

[2] = tested on: xenograft tumor of human prostate cancer DU145; test: Xenotransplantation efficacy study in nude mice; assay type: in vivo; settings: for Tumor growth inhibition: oral, DU145 xenograft; for inhibitory effect on the growth of xenograft tumor: subcutaneous DU145 xenograft
Description: Tumor cells of human prostate cancer DU145 were collected under aseptic conditions, and the cell density was adjusted to 1×10^6 cells/mL with sterilized normal saline, and then 0.2 mL of which was inoculated subcutaneously in the axillary back of nude mice. When the tumor grew to 1 cm in diameter, it was taken out under aseptic conditions, cut into tumor blocks with the size of 1 mm×1 mm, and inoculated subcutaneously in the axillary back of nude mice. Two weeks later, after the tumor grew to 100˜300 mm^3, the animals were randomly divided into groups and began to be administered (recorded as day 0). The compound to be tested is administered orally. The animals were weighed twice a week and the length and width of tumor were measured with vernier caliper. After the experiment, the nude mice were dislocated and killed, and the tumor tissues were stripped, weighed and photographed. Finally, the tumor inhibition rate was calculated, and the anti-tumor effect was evaluated by the tumor inhibition rate. The results are shown in tables 3 and 4 and FIGS. 2 and 3.
The tumor volume is calculated according to the following formula:
Tumor volume=(a×b^2)/2, where a and b represent the length and width of tumor respectively.
The tumor growth inhibition percentage is calculated according to the following formula: tumor growth inhibition (%)=(1−T/C)×100, T is the tumor volume of group of the compound to be tested, and C is the tumor volume of the solvent control group.

STAT3 transcription = test: STAT3 specific luciferase double reporter gene experiment in DU145 cells; assay type: cell-based, human; settings: for STAT3 transcription inhibition activity: DU145, STAT3 specific luciferase double reporter; for IC50: Homo sapiens, DU-145, DU145 with high STAT3 expression, 24 h
Description: The luciferase plasmids STAT3-TA-Luc and pGMLR-TK were transiently co-transfected into DU145 cells by Lipofectamine 3000. After staying overnight, different concentrations of compounds to be tested were added and cultured for 24 hours. The supernatant was discarded, and the residue was washed twice with PBS, and then 20 μL of lysis solution was added to shake and lyse for 5 min. The supernatant was transferred to a 96-well Costar whiteplate, and 70 μL of Dual-Glo luciferase substrate solution was added, and the relative fluorescence intensity of firefly luciferase was detected, and then 70 μL of Stop-Glo substrate solution was added, and the relative fluorescence intensity of sea kidney luciferase was detected, the normalized value was obtained, and the inhibition rate and IC50 value were calculated.

p-STAT3 (Tyr705) = test: Western blotting of p-STAT3 expression in DU145 cells; assay type: cell-based, human
Description: DU145 cells treated for 16 h with different concentrations of examples 12, 23, 33 and 34 and DU145 cells in control group were collected and washed twice with pre-cooled PBS. After appropriate amount of RIPA lysate (50 mM Tris-HCl, 1 mM EDTA, 1% Triton X-100, 150 mM NaCl, 0.1% SDS, 1 mM NaF, Na3VO4, protease inhibitor, pH 7.4) was added to lyse for 1 h on ice, the reaction mixture was centrifuged at 4° C., 12,000 rpm for 20 min, and then the supernatant was collected for protein quantification and boiled for denaturation. Equal amount of protein was taken for 10% SDS-PAGE electrophoresis. The specific antibodies of p-STAT3 (Tyr705) and STAT3 were used as primary antibody, which was incubated overnight at 4° C. The corresponding HRP-labeled secondary antibody was used, incubated at room temperature for 2 h, and washed. ECL chemiluminescence substrate reaction solution was added to develop in gel imaging system, and the image was saved. (3-actin was used as internal reference.

Row | Structure (SMILES) | IC50 (STAT3 transcription) | IC50 [1] | Tumor growth inhibition ([2]; 20 mg/kg × 14 times) | Tumor growth inhibition ([2]; 40 mg/kg × 11 times) | inhibitory effect on the growth of xenograft tumor [2] | STAT3 transcription inhibition activity (STAT3 transcription) | inhibitory activity on STAT3 phosphorylation (p-STAT3 (Tyr705); DU145, 0.5 μM concentration) | Tumor growth inhibition ([2]; 20 mg/kg × 6 times) | Tumor growth inhibition ([2]; 40 mg/kg × 5 times) | inhibitory activity on STAT3 phosphorylation (p-STAT3 (Tyr705); DU145, 0.1 μM concentration) | Tumor growth inhibition ([2]; 10 mg/kg × 7 times) | Tumor growth inhibition ([2]; 20 mg/kg × 7 times) | Tumor growth inhibition ([2]; 40 mg/kg × 7 times) | inhibitory activity on STAT3 phosphorylation (p-STAT3 (Tyr705); DU145, 1 μM concentration)
1 | CCc1ccc(S(=O)(=O)Nc2cc(C(=O)NCc3cccnc3)ccc2C)cc1 [Example 12, 3-((4-ethylphenyl)sulfonamido)-4-methyl-N-(pyridin-3-ylmethyl)benzamide] | 1000 nM | 40 ± 10 nM | 40.4% | 79.7*** % | significant inhibitory effects | obvious STAT3 transcription inhibition activity | obvious inhibitory activity | – | – | – | – | – | – | –
2 | Cc1ccc(C(=O)NCc2cccnc2)cc1NS(=O)(=O)c1ccc(C2CC2)cc1 [Example 23, 3-((4-cyclopropylphenyl)sulfonamido)-4-methyl-N-(pyridin-3-ylmethyl)benzamide] | 1000 nM | 50 ± 8 nM | – | – | – | obvious STAT3 transcription inhibition activity | obvious inhibitory activity | – | – | – | – | – | – | –
3 | Cc1ccc(S(=O)(=O)Nc2cc(C(=O)NCc3cccnc3)ccc2C)cc1 [Example 1, 4-methyl-3-((4-methylphenyl)sulfonamido)-N-(pyridin-3-ylmethyl) benzamide] | 7000 ± 1300 nM | 120 ± 30 nM | – | – | significant inhibitory effects | obvious STAT3 transcription inhibition activity | – | – | – | – | 58.8*** % | 62.7*** % | 73.5*** % | obvious inhibitory activity

More lines, main results first:

Row | IC50 (STAT3 transcription) | Structure (SMILES) | IC50 [1] | Tumor growth inhibition ([2]; 20 mg/kg × 14 times) | Tumor growth inhibition ([2]; 40 mg/kg × 11 times) | inhibitory effect on the growth of xenograft tumor [2] | STAT3 transcription inhibition activity (STAT3 transcription) | inhibitory activity on STAT3 phosphorylation (p-STAT3 (Tyr705); DU145, 0.5 μM concentration) | Tumor growth inhibition ([2]; 20 mg/kg × 6 times) | Tumor growth inhibition ([2]; 40 mg/kg × 5 times) | inhibitory activity on STAT3 phosphorylation (p-STAT3 (Tyr705); DU145, 0.1 μM concentration) | Tumor growth inhibition ([2]; 10 mg/kg × 7 times) | Tumor growth inhibition ([2]; 20 mg/kg × 7 times) | Tumor growth inhibition ([2]; 40 mg/kg × 7 times) | inhibitory activity on STAT3 phosphorylation (p-STAT3 (Tyr705); DU145, 1 μM concentration)
4 | 500 ± 120 nM | Cc1ccc(S(=O)(=O)Nc2cc(C(=O)NCc3ccc(C)nc3)ccc2C)cc1 [Example 33, 4-methyl-3-((4-methylphenyl)sulfonamido)-N-((6-methylpyridin-3-yl)methyl)benzamide] | 8 ± 1 nM | – | – | significant inhibitory effects | obvious STAT3 transcription inhibition activity | – | 63.0** % | 80.0** % | obvious inhibitory activity | – | – | – | –
5 | 800 ± 270 nM | COc1ccc(CNC(=O)c2ccc(C)c(NS(=O)(=O)c3ccc(C)cc3)c2)cn1 [Example 34, N-((6-methoxypyridin-3-yl)methyl)-4-methyl-3-((4-methylphenyl)sulfonamido)benzamide] | 6 ± 2 nM | – | – | – | obvious STAT3 transcription inhibition activity | – | – | – | obvious inhibitory activity | – | – | – | –
